Laboratory results taken from article PMC12498190, “A Photocaged N‐Phosphonopiperidinone as a Selective Photo‐Cleavable DPP8/9 Inhibitor” (Chembiochem, 2025).

Key:
DPP9 = DPP9 (Homo sapiens, UniProt Q86TI2); assay: In situ competitive ABPP in HEK293 cell culture, 100 kDa band; type: cell-based; set-up: endogenous in cells; host or cells: HEK293 (Cytion, Germany, 300192); settings: pre-incubation 1 h with 20 µM or 10 µM (method), 10 µM 2 for 1 h, light 5 min
Method: (§1) Figure 2 Competitive ABPP with photo‐cleavable inhibitor 5 in HEK293 cells. A) Schematic overview of a competitive ABPP experiment. A proteome is pre‐incubated with a competitor, followed by a labeling reaction with an activity‐based probe (ABP). In the case of a photocaged inhibitor, the active compound can be released via irradiation. Target proteins of the competitor cannot be bound by the ABP, resulting in an absence of the respective protein band in‐gel analysis. Created in BioRender. Najdzion, M. (2025) https://BioRender.com/84zn8cb B) Gel‐based competitive ABPP experiment in HEK293 cell lysates with the broadband serine hydrolase ABP ≡FP or the DPP8/9‐directed ABP 2 and the photocaged inhibitor 5, at the indicated concentrations, after or without prior irradiation with green light for 5 min. The corresponding pre‐incubation time for 5 was 30 min. C) Corresponding in situ competitive ABPP experiment in HEK293 cell culture, again with 10 µM 2 for 1 h. […] HEK293 cells were irradiated with a green LED lamp in the presence of 0.5% DMSO for 5 min (‘light’), and cell viability was measured after 24 h. […] For both compounds, cell viability was measured under ‘dark’ (not irradiated) and ‘light’ (irradiated for 5 min with a green LED lamp after the addition of the inhibitor) conditions. […]

PREP = target: T1, PREP (Homo sapiens, UniProt P48147); assay: In situ competitive ABPP in HEK293 cell culture, 70 kDa band; type: cell-based; settings: pre-incubation 1 h with 20 µM or 10 µM (method), 10 µM 2 for 1 h, light 5 min
T1 construct: endogenous in cells; host or cells: HEK293 (Cytion, Germany, 300192)
T1 sequence (P48147 1-710): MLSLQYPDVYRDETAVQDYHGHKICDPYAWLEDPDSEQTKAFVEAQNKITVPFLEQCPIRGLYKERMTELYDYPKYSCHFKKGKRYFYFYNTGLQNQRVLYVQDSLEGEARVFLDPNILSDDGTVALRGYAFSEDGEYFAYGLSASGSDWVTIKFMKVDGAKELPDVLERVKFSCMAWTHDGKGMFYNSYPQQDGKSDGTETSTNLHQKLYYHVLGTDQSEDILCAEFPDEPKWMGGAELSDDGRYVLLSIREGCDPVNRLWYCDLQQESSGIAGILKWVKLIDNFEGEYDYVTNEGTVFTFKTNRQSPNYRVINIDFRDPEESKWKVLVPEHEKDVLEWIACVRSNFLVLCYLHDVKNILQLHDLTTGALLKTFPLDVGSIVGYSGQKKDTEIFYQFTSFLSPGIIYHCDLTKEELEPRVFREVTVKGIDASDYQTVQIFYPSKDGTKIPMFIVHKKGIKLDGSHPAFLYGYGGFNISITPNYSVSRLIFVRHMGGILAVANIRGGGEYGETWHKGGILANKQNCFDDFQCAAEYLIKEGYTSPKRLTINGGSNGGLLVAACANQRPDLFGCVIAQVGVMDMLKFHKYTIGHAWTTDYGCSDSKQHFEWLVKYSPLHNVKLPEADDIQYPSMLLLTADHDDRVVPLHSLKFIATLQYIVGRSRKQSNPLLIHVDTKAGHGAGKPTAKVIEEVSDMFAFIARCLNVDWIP
Method: as §1

Chain of DPP9 (Q86TI2 whole entry): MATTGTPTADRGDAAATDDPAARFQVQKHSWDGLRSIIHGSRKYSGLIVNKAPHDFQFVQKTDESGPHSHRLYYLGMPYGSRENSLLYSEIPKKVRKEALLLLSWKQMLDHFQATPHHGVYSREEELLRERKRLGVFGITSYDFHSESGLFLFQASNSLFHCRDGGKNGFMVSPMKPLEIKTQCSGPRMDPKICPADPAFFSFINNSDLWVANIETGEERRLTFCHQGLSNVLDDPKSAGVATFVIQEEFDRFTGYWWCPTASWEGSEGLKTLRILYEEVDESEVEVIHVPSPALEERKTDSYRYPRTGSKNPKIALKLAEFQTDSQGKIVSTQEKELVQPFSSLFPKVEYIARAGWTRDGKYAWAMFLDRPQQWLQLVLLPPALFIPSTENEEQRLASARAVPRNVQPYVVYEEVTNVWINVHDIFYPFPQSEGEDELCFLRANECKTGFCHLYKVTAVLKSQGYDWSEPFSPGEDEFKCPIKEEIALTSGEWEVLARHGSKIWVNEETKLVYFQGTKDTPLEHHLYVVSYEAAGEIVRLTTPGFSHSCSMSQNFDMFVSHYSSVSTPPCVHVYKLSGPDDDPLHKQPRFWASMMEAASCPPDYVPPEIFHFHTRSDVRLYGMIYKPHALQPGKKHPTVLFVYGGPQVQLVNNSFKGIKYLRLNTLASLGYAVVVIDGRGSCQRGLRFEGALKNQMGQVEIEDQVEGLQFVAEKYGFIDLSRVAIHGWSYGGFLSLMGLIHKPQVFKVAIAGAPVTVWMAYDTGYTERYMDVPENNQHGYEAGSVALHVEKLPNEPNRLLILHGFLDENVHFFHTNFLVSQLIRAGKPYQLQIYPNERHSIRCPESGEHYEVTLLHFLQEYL

CCCCCc1ccc(SCCP(=O)(OCC)N2CCC[C@H](NC(=O)OCC3=C4C(C)=CC(C)=[N+]4[B-](C)(C)n4c(C)cc(C)c43)C2=O)cc1 (some centres unmarked) [Compound 5]
Competition of DPP9 labeling in live cells (in words) (DPP9): completely inhibited | Competition of PREP labeling in live cells (in words) (PREP): partially competed
